Reference: patent US10449183B2, “Methods for inhibiting preterm labor and uterine contractility disorders and preventing cervical ripening” (DIGNITY HEALTH, priority 2010, dated 2019)
Entries after “also recorded” stand apart in the source; their conditions may differ.

Tested on: cervix of pregnant rats
Assay: Cervical ripening assessed in vivo by collagen light-induced fluorescence (LIF) with the collascope
Parameters: species or system Sprague-Dawley rats
Source text: Nonpregnant and timed-pregnant Sprague-Dawley rats (200-250 g) from Charles-River Laboratories (Wilmington, Mass., USA) were delivered to animal care facilities on day 12 of gestation (day 1 being the day when a sperm plug was observed). The animals were housed separately, with free access to food and water and maintained on a constant 12-hour light-dark cycle. Control pregnant rats were spontaneously delivering on day 22 and 23 of gestation. For the measurements with the collascope the animals were anaesthetized (interperitoneal (i.p). injection) with a combination of xylazine (Gemini, Burns Veterinary Supply Inc, Rockville Center, N.Y., USA) and ketamine HCl (Ketaset; Fort Dodge Laboratories Inc, Fort Dodge, Iowa, USA). The animals were randomly allocated to one of the groups and sacrificed by carbon dioxide inhalation on day 3, 5, 7 and 10 postpartum or on day 25 of pregnancy in the groups with delayed delivery. All procedures were approved by the Animal Care and Use Committee of the St. Joseph's Hospital and Medical Center in Phoenix.
Prior to any treatment LIF measurements were made in control rats throughout pregnancy and postpartum to estimate the LIF profile during gestation (see FIG. 1). Pregnant rats (N=6/group) were treated (see FIG. 2), when not otherwise mentioned (see FIG. 3), from day 13 of pregnancy until delivery. Single daily treatments were performed at 8 a.m. and twice a day treatments at 8 a.m. and 8 p.m. All single injections (4 mg P4, 10 mg 17P, 2 mg promegestone (R5020)) were by the subcutaneous route (s.c.) in sesame oil (0.2 ml), which was also used for the controls. Vaginal gels were applied twice a day with a blunt ball-top needle deep into the vagina. Crinone was used for the P4 vaginal group (equivalent volumes of Crinone were used for 2-15 mg P4/treatment), all data presented show the results of the highest dose (total daily dose of 30 mg P4=⅓ of a applicator of 8% Crinone that contains 90 mg P4). For the vaginal promegestone (R5020) group micronized promegestone (R5020) (1 mg/treatment) was mixed into 0.18 ml of Replens. The control rats for the vaginal groups were treated with Replens (0.18 ml/treatment). For oral P4 treatments (15 mg, bid, vehicle sesame oil or H2O, volume 1 ml) gavage was used. For topical P4 treatment (15 mg, bid, P4 in 1 ml sesame oil, fish oil or in Replens) the drug was applied on the back of animals that were shaved on day 13, 17 and 21. In some animals (N=6) RU-486 (3 mg in 0.2 ml sesame oil) was injected subcutaneously once on day 16 of gestation.
The amount of cervical collagen was evaluated in vivo (only in group subcutaneously P4, vaginal P4, subcutaneously 17P, vaginal promegestone (R5020), subcutaneously RU-486) by measurement of the auto-fluorescent properties of cross-linked collagen with a new prototype of an instrument, termed collascope (Reproductive Research Technologies, Houston, Tex., USA), as used previously with an earlier prototype.
After insertion of a small speculum into the vagina of the anesthetized animal, the optical probe of the collascope was placed on the surface of the exocervix. […] The exposure time for excitation was 100 msec. The average of 20 measurements of the detected fluorescent intensity (photon count) at 390 nm was used for each animal at any given time. Measurements of cervical light-induced fluorescence (LIF) were performed on nonpregnant animals once and in pregnant animals every other day starting at day 13 of gestation until delivery and on postpartum day 3 and/or postpartum day 5 (see FIGS. 2 and 3), and for some animals also on postpartum days 7 and 10 (see FIGS. 1 and 3).
The cervical LIFs obtained at different times of gestation (FIG. 1) were compared using one-way analysis of variance (ANOVA) and multiple pairwise comparison procedures (Holm-Sidak). […]

CC(=O)[C@H]1CC[C@H]2[C@@H]3CCC4=CC(=O)CC[C@]4(C)[C@H]3CC[C@]12C [P4, progesterone]
cervical LIF, day 25 (delayed delivery) in P4 injection group compared to control animals at day 21 (P4 4 mg s.c. daily from day 13): no difference (P<0.05) | cervical LIF / cervical ripening compared with vehicle controls (P4 4 mg s.c. daily in sesame oil from day 13 of pregnancy): cervix is rigid; also recorded: significantly (P<0.05) higher; also recorded: longest effect on delaying cervical ripening; also recorded: also prevents further ripening on day 21; also recorded: can only delay, but not completely inhibit cervical ripening; also recorded: delayed but not entirely blocked during the final days of gestation | cervical LIF / cervical ripening compared with vehicle controls (vaginal P4 15 mg bid (Crinone) from day 13): no significant differences (P>0.05); also recorded: no effect on cervical ripening; also recorded: no significant differences are observed at any time
